In ChEMBL document CHEMBL1125688, “The synthesis and potassium channel blocking activity of some (4-methanesulfonamidophenoxy)propanolamines as potential class III antiarrhythmic agents” (1991):

How the values were obtained:
[1] = species: Cavia porcellus; test: Compound was evaluated for the increase in duration or cardiac APD (action potential duration) at 90% repolarization, using isolated guinea pig ventricular myocytes at concentration of 50000 nM; no detectable change; type: functional; details: Heart, Ventricular myocyte
[2] = species: Cavia porcellus; test: Compound was evaluated for the increase in duration or cardiac APD (action potential duration) at 90% repolarization, using isolated guinea pig ventricular myocytes at concentration of 10000 nM; no detectable change; type: functional; details: Heart, Ventricular myocyte
[3] = species: Cavia porcellus; test: Compound was evaluated for the increase in duration or cardiac APD (action potential duration) at 90% repolarization, using isolated guinea pig ventricular myocytes at concentration of 1000 nM; type: functional, Heart, Ventricular myocyte; parameters: unit not given here
[4] = species: Cavia porcellus; test: Compound was evaluated for the increase in duration or cardiac APD (action potential duration) at 90% repolarization, using isolated guinea pig ventricular myocytes at concentration of 10000 nM; type: functional, Heart, Ventricular myocyte; parameters: unit not given here
[5] = species: Cavia porcellus; test: Compound was evaluated for the increase in duration or cardiac APD (action potential duration) at 90% repolarization, using isolated guinea pig ventricular myocytes at concentration of 50000 nM; type: functional, Heart, Ventricular myocyte
[6] = species: Cavia porcellus; test: Compound was evaluated for the increase in duration or cardiac APD (action potential duration) at 90% repolarization, using isolated guinea pig ventricular myocytes at concentration of 10 nM; type: functional, Heart, Ventricular myocyte
[7] = species: Cavia porcellus; test: Compound was evaluated for the increase in duration or cardiac APD (action potential duration) at 90% repolarization, using isolated guinea pig ventricular myocytes at concentration of 1 nM; type: functional, Heart, Ventricular myocyte
[8] = species: Cavia porcellus; test: Compound was evaluated for the increase in duration or cardiac APD (action potential duration) at 90% repolarization, using isolated guinea pig ventricular myocytes at concentration of 100 nM; type: functional, Heart, Ventricular myocyte; parameters: unit not given here
[9] = species: Cavia porcellus; test: Compound was evaluated for the increase in duration or cardiac APD (action potential duration) at 90% repolarization, using isolated guinea pig ventricular myocytes at concentration of 75000 nM; type: functional, Heart, Ventricular myocyte
[10] = species: Cavia porcellus; test: Compound was evaluated for the increase in duration or cardiac APD (action potential duration) at 90% repolarization, using isolated guinea pig ventricular myocytes at concentration of 33000 nM; type: functional, Heart, Ventricular myocyte
[11] = species: Cavia porcellus; test: Compound was evaluated for the increase in duration or cardiac APD (action potential duration) at 90% repolarization, using isolated guinea pig ventricular myocytes at concentration of 50 nM; type: functional, Heart, Ventricular myocyte
[12] = species: Cavia porcellus; test: Compound was evaluated for the increase in duration or cardiac APD (action potential duration) at 90% repolarization, using isolated guinea pig ventricular myocytes at concentration of 250 nM; type: functional, Heart, Ventricular myocyte
[13] = species: Cavia porcellus; test: Compound was evaluated for the increase in duration or cardiac APD (action potential duration) at 90% repolarization, using isolated guinea pig ventricular myocytes at concentration of 33000 nM; No detectable change; type: functional; details: Heart, Ventricular myocyte
[14] = species: Cavia porcellus; test: Compound was evaluated for the increase in duration or cardiac APD (action potential duration) at 90% repolarization, using isolated guinea pig ventricular myocytes at concentration of 10000 nM; No detectable change; type: functional; details: Heart, Ventricular myocyte
[15] = species: Cavia porcellus; test: Compound was evaluated for the increase in duration or cardiac APD (action potential duration) at 90% repolarization, using isolated guinea pig ventricular myocytes at concentration of 33000 nM; no detectable change; type: functional; details: Heart, Ventricular myocyte

## CNCC(O)COc1ccc(NS(C)(=O)=O)cc1 (stereo unspecified)
[1]
  Delta APD90: No detectable change
[2]
  Delta APD90: No detectable change

## COc1ccc(CCNCC(O)COc2ccc(NS(C)(=O)=O)cc2)cc1OC (stereo unspecified)
[3]
  Delta APD90: 15
[4]
  Delta APD90: 80

## CC(C)NCC(O)c1ccc(NS(C)(=O)=O)cc1 (stereo unspecified) [SOTALOL]
[5]
  Delta APD90: 30
[4]
  Delta APD90: 75

## CS(=O)(=O)Nc1cccc(OCC(O)CN2CCC(c3ccccc3)CC2)c1 (stereo unspecified)
[3]
  Delta APD90: 48

## CN(CCc1ccc(Cl)c(Cl)c1)CC(O)COc1ccc(NS(C)(=O)=O)cc1 (stereo unspecified)
[6]
  Delta APD90: 42
[7]
  Delta APD90: 20
[8]
  Delta APD90: 85

## COc1ccc(CCN(CC(O)COc2ccc(NS(C)(=O)=O)cc2)C(C)C)cc1OC (stereo unspecified)
[8]
  Delta APD90: 65
[3]
  Delta APD90: 100

## CCN(CC)CC(O)COc1ccc(NS(C)(=O)=O)cc1 (stereo unspecified)
[3]
  Delta APD90: 25
[4]
  Delta APD90: 85

## CC(C)(C)NCC(O)COc1ccc(NS(C)(=O)=O)cc1 (stereo unspecified)
[5]
  Delta APD90: 75
[9]
  Delta APD90: 75
[10]
  Delta APD90: 40

## CS(=O)(=O)Nc1ccc(OCC(O)CN2CCC(c3ccc(C(F)(F)F)cc3)CC2)cc1 (stereo unspecified)
[6]
  Delta APD90: 100
[7]
  Delta APD90: 40
[11]
  Delta APD90: 100

## CN(CCc1ccccc1)CC(O)COc1ccc(NS(C)(=O)=O)cc1 (stereo unspecified)
[8]
  Delta APD90: 48
[3]
  Delta APD90: 88

## CS(=O)(=O)Nc1ccc(OCC(O)CN2CCc3ccccc3C2)cc1 (stereo unspecified)
[8]
  Delta APD90: 60

## CN(CCOc1ccc(NS(C)(=O)=O)cc1)CCc1ccc(NS(C)(=O)=O)cc1 [DOFETILIDE]
[11]
  Delta APD90: 23
[12]
  Delta APD90: 100
[8]
  Delta APD90: 63

## O=C(O)c1ccc(OCC(O)CN2CCC(c3ccccc3)CC2)cc1 (stereo unspecified)
[3]
  Delta APD90: 36

## CS(=O)(=O)Nc1ccc(OCC(O)CN2CCN(c3ccccc3)CC2)cc1 (stereo unspecified)
[3]
  Delta APD90: 78
[4]
  Delta APD90: 100

## CN(C/C=C/c1ccccc1)CC(O)COc1ccc(NS(C)(=O)=O)cc1 (stereo unspecified)
[11]
  Delta APD90: 50
[8]
  Delta APD90: 100

## COc1ccc(CCN(C)CC(O)COc2ccc(NS(C)(=O)=O)cc2)cc1OC (stereo unspecified)
[8]
  Delta APD90: 40
[3]
  Delta APD90: 100

## CS(=O)(=O)Nc1ccc(OCC(O)CNCCc2ccccc2)cc1 (stereo unspecified)
[4]
  Delta APD90: 80

## CC(C)NCC(O)COc1ccc(N(C)S(C)(=O)=O)cc1 (stereo unspecified)
[13]
  Delta APD90: No detectable change
[14]
  Delta APD90: No detectable change

## CS(=O)(=O)Nc1ccc(OCC(O)CN2CCC(c3ccccc3)CC2)cc1 (stereo unspecified)
[8]
  Delta APD90: 48
[3]
  Delta APD90: 100

## CN(c1ccc(OCC(O)CNCCc2ccccc2)cc1)S(C)(=O)=O (stereo unspecified)
[15]
  Delta APD90: No detectable change
[2]
  Delta APD90: No detectable change

## CS(=O)(=O)Nc1ccc(OCC(O)CNCCc2ccc(Cl)cc2)cc1 (stereo unspecified)
[4]
  Delta APD90: 90

## CS(=O)(=O)Nc1ccc(OCC(O)CN2CCC(c3ccc(Cl)cc3)CC2)cc1 (stereo unspecified)
[6]
  Delta APD90: 100
[7]
  Delta APD90: 50

## CC(C)NCC(O)COc1ccc(NS(C)(=O)=O)cc1 (stereo unspecified)
[2]
  Delta APD90: No detectable change
[10]
  Delta APD90: 33

## CN(CCCc1ccccc1)CC(O)COc1ccc(NS(C)(=O)=O)cc1 (stereo unspecified)
[8]
  Delta APD90: 70
